Test results reported in patent US6489320B1, “5, 5-disubstituted-1, 5-dihydro-4, 1-benzoxazepin-2 (3H)-ones useful as HIV reverse transcriptase inhibitors” (Bristol-Myers Squibb Pharma Company, priority 1997, dated 2002).
Several values for one entry are separate records, joined by “and”; a condition that tells them apart may be missing. Equal entries are not always repeated. Structures can show the parent of a compound that is named as a salt.

melting point	Compound
190 to 191 °C	O=C1COC(C#Cc2ccccc2)(C(F)(F)F)c2cc(Cl)ccc2N1 (stereo not drawn) (as salt: sodium) [Example 16, 7-Chloro-5-phenylethynyl-1,5-dihydro-5-(trifluoromethyl)-4,1-benzoxazepin-2(3H)-one]
169 to 170 °C	CC[C@@H]1O[C@](C#Cc2ccoc2)(C(F)(F)F)c2cc(Cl)ccc2NC1=O (relative stereo) (as salt: sodium) [Example 32, rel-(3S,5S)-7-Chloro-5-(3-furanylethynyl)-1,5-dihydro-3-ethyl-5-(trifluoromethyl)-4,1-benzoxazepin-2(3H)-one]
171 to 172 °C	C[C@@H]1O[C@](/C=C/C2CC2)(C(F)(F)F)c2cc(Cl)ccc2NC1=O (relative stereo) [Example 6, rel-(3S,5S)-trans-7-Chloro-5-(2-cyclopropylethenyl)-1,5-dihydro-3-methyl-5-(trifluoromethyl)-4,1-benzoxazepin-2(3H)-one]
205 to 206.5 °C	C[C@@H]1O[C@](/C=C/c2ccco2)(C(F)(F)F)c2cc(Cl)ccc2NC1=O (relative stereo) [Example 9, rel-(3S,5S)-trans-7-Chloro-1,5-dihydro-5-(2-furan-2-ylethenyl)-3-methyl-5-(trifluoromethyl)-4,1-benzoxazepin-2(3H)-one]
191 to 192 °C	CCC[C@@H]1O[C@](C#CC2CC2)(C(F)(F)F)c2cc(Cl)ccc2NC1=O (relative stereo) [Example 14a, rel-(3S,5S)-7-Chloro-5-cyclopropylethynyl-1,5-dihydro-3-propyl-5-(trifluoromethyl)-4,1-benzoxazepin-2(3H)-one]
141 °C	CCC[C@H]1O[C@](C#CC2CC2)(C(F)(F)F)c2cc(Cl)ccc2NC1=O (relative stereo) [Example 14b, rel-(3R,5S)-7-Chloro-5-cyclopropylethynyl-1,5-dihydro-3-propyl-5-(trifluoromethyl)-4,1-benzoxazepin-2(3H)-one]
167 °C	CC(C)[C@@H]1O[C@](C#CC2CC2)(C(F)(F)F)c2cc(Cl)ccc2NC1=O (relative stereo) [Example 15, rel-(3S,5S)-7-Chloro-5-cyclopropylethynyl-1,5-dihydro-3-isopropyl-5-(trifluoromethyl)-4,1-benzoxazepin-2(3H)-one]
180 to 181 °C	CC[C@@H]1O[C@](C#CC2CC2)(C(F)(F)F)c2cc(Cl)ccc2NC1=O (relative stereo) [Example 22, rel-(3S,5S)-7-Chloro-5-cyclopropylethynyl-1,5-dihydro-3-ethyl-5-(trifluoromethyl)-4,1-benzoxazepin-2(3H)-one]
129 to 130 °C	CC[C@H]1O[C@](C#CC2CC2)(C(F)(F)F)c2cc(Cl)ccc2NC1=O (relative stereo) [Example 23, rel-(3R,5S)-7-Chloro-5-cyclopropylethynyl-1,5-dihydro-3-ethyl-5-(trifluoromethyl)-4,1-benzoxazepin-2(3H)-one]
165 to 167 °C and 167 °C	CCC[C@@H]1O[C@](/C=C/C2CC2)(C(F)(F)F)c2cc(Cl)ccc2NC1=O (relative stereo) [Example 30, rel-(3S,5S)-trans-7-Chloro-5-(2-cyclopropylethenyl)-1,5-dihydro-3-propyl-5-(trifluoromethyl)-4,1-benzoxazepin-2(3H)-one]
147 to 147.5 °C	CC[C@@H]1O[C@](/C=C/C2CC2)(C(F)(F)F)c2cc(Cl)ccc2NC1=O (relative stereo) [Example 38, rel-(3S,5S)-trans-7-Chloro-5-(2-cyclopropylethenyl)-1,5-dihydro-3-ethyl-5-(trifluoromethyl)-4,1-benzoxazepin-2(3H)-one]
165.5 to 166.5 °C	C=C[C@@H]1O[C@](/C=C/C2CC2)(C(F)(F)F)c2cc(Cl)ccc2NC1=O (relative stereo) [Example 42, rel-(3S,5S)-trans-7-Chloro-5-(2-cyclopropylethenyl)-1,5-dihydro-3-ethenyl-5-(trifluoromethyl)-4,1-benzoxazepin-2(3H)-one]
143 to 144 °C	O=C1Nc2ccc(Cl)cc2[C@@](/C=C/C2CC2)(C(F)(F)F)O[C@H]1C1CC1 (relative stereo) [Example 44, rel-(3S,5S)-trans-7-Chloro-5-(2-cyclopropylethenyl)-1,5-dihydro-3-cyclopropyl-5-(trifluoromethyl)-4,1-benzoxazepin-2(3H)-one]
171 to 172 °C	C=C[C@@H]1O[C@](C#CC2CC2)(C(F)(F)F)c2c(ccc(F)c2F)NC1=O (relative stereo) [Example 45, rel-(3S,5S)-6,7-Difluoro-5-(2-cyclopropylethynyl)-1,5-dihydro-3-ethenyl-5-(trifluoromethyl)-4,1-benzoxazepin-2(3H)-one]
222 to 222.5 °C	O=C1Nc2ccc(F)c(F)c2[C@@](C#CC2CC2)(C(F)(F)F)O[C@H]1C1CC1 (relative stereo) [Example 46, rel-(3S,5S)-6,7-Difluoro-5-(2-cyclopropylethynyl)-1,5-dihydro-3-cyclopropyl-5-(trifluoromethyl)-4,1-benzoxazepin-2(3H)-one]
184 to 185 °C	C[C@@H]1O[C@](C#CC2CC2)(C(F)(F)F)c2cc(F)ccc2NC1=O (relative stereo) [Example 48, rel-(3S,5S)-7-Fluoro-5-(2-cyclopropylethynyl)-1,5-dihydro-3-methyl-5-(trifluoromethyl)-4,1-benzoxazepin-2(3H)-one]
186 °C	CC[C@@H]1O[C@](C#CC2CC2)(C(F)(F)F)c2cc(F)ccc2NC1=O (relative stereo) [Example 49, rel-(3S,5S)-7-Fluoro-5-(2-cyclopropylethynyl)-1,5-dihydro-3-ethyl-5-(trifluoromethyl)-4,1-benzoxazepin-2(3H)-one]
180 to 182 °C	C[C@@H]1O[C@](/C=C/C2CC2)(C(F)(F)F)c2cc(F)ccc2NC1=O (relative stereo) [Example 50, rel-(3S,5S)-trans-7-Fluoro-5-(2-cyclopropylethenyl)-1,5-dihydro-3-methyl-5-(trifluoromethyl)-4,1-benzoxazepin-2(3H)-one]
148 to 149 °C	CC[C@@H]1O[C@](/C=C/C2CC2)(C(F)(F)F)c2cc(F)ccc2NC1=O (relative stereo) [Example 51, rel-(3S,5S)-trans-7-Fluoro-5-(2-cyclopropylethenyl)-1,5-dihydro-3-ethyl-5-(trifluoromethyl)-4,1-benzoxazepin-2(3H)-one]
252 °C	C[C@@H]1O[C@](C#CC2CC2)(C(F)(F)F)c2c(ccc3c2OCO3)NC1=O (relative stereo) [Example 52, rel-(3S,5S)-6,7-Methylenedioxy-5-(2-cyclopropylethynyl)-1,5-dihydro-3-methyl-5-(trifluoromethyl)-4,1-benzoxazepin-2(3H)-one]
201 to 202 °C	CC[C@@H]1O[C@](C#CC2CC2)(C(F)(F)F)c2c(ccc3c2OCO3)NC1=O (relative stereo) [Example 53, rel-(3S,5S)-6,7-Methylenedioxy-5-(2-cyclopropylethynyl)-1,5-dihydro-3-ethyl-5-(trifluoromethyl)-4,1-benzoxazepin-2(3H)-one]
